# Source: patent US20220133728A1, “METHODS FOR TREATING VITILIGO LESIONS HAVING IMPROVED EFFICACY” (ARCUTIS BIOTHERAPEUTICS, INC., priority 2020, published 2022)
# Assays:
# vitiligo lesions = assay: Proof of Concept, double blind, vehicle-controlled study of ARQ-252 cream 0.3% BID with NB-UVB home phototherapy in non-segmental facial vitiligo; type: in vivo, human; details: applied topically in combination with narrowband UVB phototherapy, compared to vehicle cream plus narrowband UVB
# Text: A Proof of Concept, parallel group, double blind, vehicle-controlled study of the safety and efficacy of a 0.3% SHR0302 topical cream of Example 1 (ARQ-252 cream 0.3%) was designed for subjects with non-segmental facial vitiligo. Subjects with non-segmental facial vitiligo applied either ARQ-252 0.3% cream BID or vehicle cream BID to all affected areas of vitiligo on the face, neck, hands, forearms, and elbows. Product was applied to all affected, depigmented areas and, where anatomically possible, treatment extended approximately 3 cm from the border all around. […]
# The two patients were assessed by measures including Facial Vitiligo Area and Severity Index (F-VASI), Facial Body Surface Area (F-BSA), Facial/Neck BSA (F/N-BSA), BSA (Hands, Forearms, Elbows), Facial/Neck VASI (F/N-VASI), VASI of the forearms and elbow (FOREARM-VASI) and VASI of the hands only (HAND-VASI). […] VASI is a quantitative clinical tool that is based on a composite estimate of the overall area of vitiligo patches at baseline and the degree of macular repigmentation within these patches over time. […] BSA affected with vitiligo will be assessed as a percentage of the total BSA, and will be determined to the nearest 0.01% using, as guides, the palm plus 5 digits, with fingers tucked together and thumb tucked to the side (handprint), as 1% BSA and the thumb as 0.1% BSA. […]
# JAK 1 = JAK 1 (Homo sapiens, UniProt P23458); details: cited from earlier work
# Chain of JAK 1 (P23458 whole entry, species assumed): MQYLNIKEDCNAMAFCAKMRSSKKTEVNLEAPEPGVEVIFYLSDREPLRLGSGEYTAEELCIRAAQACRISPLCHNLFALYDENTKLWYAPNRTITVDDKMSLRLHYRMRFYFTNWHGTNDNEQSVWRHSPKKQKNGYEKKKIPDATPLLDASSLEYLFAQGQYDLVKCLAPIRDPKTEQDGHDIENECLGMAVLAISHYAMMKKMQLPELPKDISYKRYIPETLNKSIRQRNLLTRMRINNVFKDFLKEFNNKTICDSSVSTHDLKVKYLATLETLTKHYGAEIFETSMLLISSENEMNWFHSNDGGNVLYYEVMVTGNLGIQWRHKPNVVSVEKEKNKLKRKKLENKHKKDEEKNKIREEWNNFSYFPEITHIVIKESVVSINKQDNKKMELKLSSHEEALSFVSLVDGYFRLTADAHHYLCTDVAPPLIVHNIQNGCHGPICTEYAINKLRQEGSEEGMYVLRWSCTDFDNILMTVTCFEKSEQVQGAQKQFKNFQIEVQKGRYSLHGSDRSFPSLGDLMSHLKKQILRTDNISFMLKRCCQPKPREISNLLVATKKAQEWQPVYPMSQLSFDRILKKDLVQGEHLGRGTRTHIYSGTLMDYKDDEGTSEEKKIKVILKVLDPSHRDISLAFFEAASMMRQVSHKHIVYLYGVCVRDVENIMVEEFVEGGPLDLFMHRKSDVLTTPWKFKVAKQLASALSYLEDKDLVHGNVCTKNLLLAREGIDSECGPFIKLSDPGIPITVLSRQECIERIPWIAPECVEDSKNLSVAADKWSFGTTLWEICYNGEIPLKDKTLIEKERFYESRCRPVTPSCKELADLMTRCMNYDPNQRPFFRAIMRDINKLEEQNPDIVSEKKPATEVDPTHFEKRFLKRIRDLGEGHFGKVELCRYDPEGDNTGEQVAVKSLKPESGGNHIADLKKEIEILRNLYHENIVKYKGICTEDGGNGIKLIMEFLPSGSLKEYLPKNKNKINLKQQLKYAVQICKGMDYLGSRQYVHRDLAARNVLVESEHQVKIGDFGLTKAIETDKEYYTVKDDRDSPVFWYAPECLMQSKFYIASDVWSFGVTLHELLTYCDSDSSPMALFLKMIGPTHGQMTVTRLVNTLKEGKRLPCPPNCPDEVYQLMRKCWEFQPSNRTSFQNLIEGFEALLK
smiles,measurement,setting,value
"COc1nsc(NC(=O)N2C[C@H]3C[C@H](N(C)c4ncnc5[nH]ccc45)C[C@H]3C2)n1 [SHR0302, (3aR,5S,6aS)—N-(3-methoxyl-1,2,4-thiadiazol-5-yl)-5-(methyl(7H-pyrrolo[2,3-d]pyrimidin-4-yl)amino)hexahydrocyclopenta[c]pyrrole-2(1H)-carboxamide]",repigmentation of vitiligo lesions,vitiligo lesions,dramatically repigmented
same,inhibition of JAK 1,JAK 1,potent
same,selectivity for JAK1 over JAK2,JAK 1,high selectively for JAK1 over JAK2
